Patent US6583132B1, “Oxidant scavengers” (Duke University, priority 1993, dated 2003)
One block for each compound: values may come before it.

Legend:
[1] = SOD activity (McCord and Fridovich); format: biochemical; details: In vitro Biochemistry
Protocol: SOD activity can be monitored in the presence and absence of EDTA using the method of McCord and Fridovich (J. Biol. Chem. 244:6049 (1969)). The efficacy of a mimetic can be determined by measuring the effect of the mimetic on the growth of a SOD null E. coli strain versus a wild type strain. Specifically, wild type E. coli (AB1157) and SOD null E. coli. (JI132) can be grown in M9 medium containing 0.2% casamino acids and 0.2% glucose at pH 7.0 and 37° C.; growth can be monitored in terms of turbidity followed at 700 nm spectrophotometrically. Active mimetics can be tested for toxicity in mammalian cell culture by measuring lactate dehydrogenase (LDH) release. Specifically, rat L2 cells (a lung Type II like cell; (Kaighn and Douglas, J. Cell Biol. 59:106a (1973)) can be grown in Ham's F-12 medium with 10% fetal calf serum supplement at pH 7.4 and 37° C.; cells can be seeded at equal densities in 24 well culture dishes and grown to approximately 90% confluence; SOD mimetics can be added to the cells at log doses (eg micromolar doses in minimal essential medium (MEM)) and incubated for 24 hours. Toxicity can be assessed by morphology and by measuring the release of the cytosolic injury marker, LDH (eg on a thermokinetic plate reader), as described by Vassault (In: Methods of Enzymatic Analysis, Bergmeyer (ed) pp. 118-26 (1983); oxidation of NADH is measured at 340 nm). Efficacy of active mimetics can be assessed by determining their ability to protect mammalian cells against methylviologen (paraquat)-induced toxicity. Specifically, rat L2 cells grown as described above and seeded into 24 well dishes can be pre-incubated with various concentrations of the SOD mimetic and then incubated with a concentration of methylviologen previously shown to produce an LC75 in control L2 cells. Efficacy of the mimetic can be correlated with a decrease in the methylviologen-induced LDH release (St. Clair et al, FEBS Lett. 293:199 (1991)). The efficacy of SOD mimetics can be tested in vivo with mouse and/or rat models using both aerosol administration and parenteral injection. For example, male Balb/c mice can be randomized into 4 groups of 8 mice each to form a standard 2×2 contingency statistical model. Animals can be treated with either paraquat (40 mg/kg, ip) or saline and treated with SOD mimetic or vehicle control. Lung injury can be assessed 48 hours after paraquat treatment by analysis of bronchoalveolar lavage fluid (BALF) damage parameters (LDH, protein and % PMN) as previously described (Hampson et al, Tox. Appl. Pharm. 98:206 (1989); Day et al, J. Pharm. Methods 24:1 (1990)). […]
^2SOD activity determined as described by McCord and Fridovich, J. Biol. Chem. […] (1969).

[2] = Catalase activity, Clark oxygen electrode; format: biochemical; details: 1 mM hydrogen peroxide; oxygen formation over 2 minutes
Description: Catalase activity can be monitored by measuring absorbance at 240 nm in the presence of hydrogen peroxide (see Beers and Sizer, J. Biol. Chem. 195:133 (1952)) or by measuring oxygen evolution with a Clark oxygen electrode (Del Rio et al, Anal. Biochem. 80:409 (1977)). Peroxidase activity can be measured spectrophotometrically as previously described by Putter and Becker: Peroxidases. In: Methods of Enzymatic Analysis, H. U. Bergmeyer (ed.), Verlag Chemie, Weinheim, pp. 286-292 (1983. Aconitase activity can be measured as described in Example XI below.
Catalase activity was measured by means of a Clark oxygen electrode using a modified assay previously described by Del Rio et al, Anal. Biochem. 80:409 (1977). Briefly, reactions were performed in a nitrogen degassed phosphate buffer (50 mM, pH 7.8) containing 0.1 mM EDTA at 25° C. Three concentrations of hydrogen peroxide (1-4 mM) and four metalloporphyrin concentrations (0.5-50 μM) were used to determine second order rate constants. The rate of oxygen evolution was followed for 2 minutes.
^3Catalase activity determined as described by Del Rio et al, Anal. Biochem. 80:409 )1977). Metalloporphyrins were assayed at various concentrations in the presence of 1 mM hydrogen peroxide for catalase-like activity. A Clark electrode was used to measure the formation of oxygen from the breakdown of hydrogen peroxide over a period of 2 minutes.

J774 macrophages [3] = assay: Nitrite/nitrate production in J774 macrophages; format: cell-based
Protocol: (§1) Cell culture: J774 macrophages were cultured in DMEM medium, supplemented with L-glutamine (3.5 mmol/L) and 10% fetal calf serum. Cells were cultured in 96-well plates (200 μl medium/well) until confluence. To induce the inducible isoform of nitric oxide synthase (iNOS), fresh culture medium containing E. coli LPS (011:B4, 10 μg/ml) alone or in combination with murine γ-interferon (γ-IFN, 10 U/ml) was added in the presence or absence of the NOS inhibitor, the SOD mimetic of the combination of the two compounds for 24 h. Moreover, cells were exposed to the NO donor compounds S-nitroso-N-acetyl-DL-penicillamine (SNAP) (3 mM) and diethylamine:NO NONOate (DNO) (3 mM) for 24 h or to authentic peroxynitrite (1 mM) for 1 h). Nitride/nitrate concentration in the medium and mitochondrial respiration were then measured as described below.
Measurement of nitrite/nitrate production: Nitride/nitrate production, an indicator of NO synthesis, was measured in the supernatant. First, nitrate in the culture medium was reduced to nitrite by incubation with nitrate reductase (670 mU/ml) and NADPH (160 μM) at room temperature for 2 h. After 2 h, nitrite concentration in the samples were measured by the Griess reaction, by adding 100 μl of Griess reagent (1% sulfanilamide and 0.1% naphthylethylenediamide in 5% phosphoric acid) to 100 μl samples of conditioned medium. The optical density at 550 nm (OD550) was measured using a Spectramax 250 microplate reader (Molecular Devices, Sunnyvale, Calif.) Nitrate concentrations were calculated by comparison with OD550 of standard solutions of sodium nitrate prepared in culture medium. All measurements were corrected for the interference of MnTBAP at this wavelength.

J774 macrophages [4] = assay: Mitochondrial respiration (MTT) in J774 macrophages; format: cell-based; details: LPS-treated and LPS and IFN-treated cells, 24 h
Protocol: as §1
Measurement of mitochondrial respiration: Cell respiration was assessed by the mitochondrial-dependent reduction of 3-(4,5-dimethylthiazol-2-yl)-2,5-diphenyltetrazolium bromide (MTT) to formazan. Cells in 96-well plates were incubated at 37° C. with MTT (0.2 mg/ml) for 1 hour. Culture medium was removed by aspiration and the cells were solubilized in DMSO (100 μl). The extent of reduction of MTT to formazan within cells was quantitated by the measurement of OD550. All measurements were corrected for the interference of MnTBAP at this wavelength.

aconitase = assay: Aconitase activity in cortical cell lysates; format: cell-based, rat; details: 1 mM NOS inhibitor
Protocol: (§2) Tissue culture: Mixed neuronal and glial cultures were prepared from embryonic day-18 rat cerebral cortices (Sprague-Dawley, Zivic Miller). Briefly, the cerebral cortices were dissected and enzymatically dissociated by incubation in Ca^++-, Mg^++-free Hank's balanced salt solution (HBSS) supplemented with 10 mM HEPES and 0.25% trypsin for 20 min. at 37° C. The tissue was rinsed and dispersed into single cell suspension by gentle passage through a fire polished Pasteur pipette. The cell suspension was centrifuged and resuspended in Minimum Essential Media (MEM), containing Earle's salts supplemented with 3 g/L glucose, 5% horse serum and 5% fetal bovine serum (growth media). The cells were plated in poly-D-lysine-coated multi-well plates: 12-well plates for aconitase measurement, and 24 well plates for toxicity experiments. Cells were maintained at 37° C. in a humidified incubator with 5% CO2/95% air in growth media. Media was not replaced so as to reduce glial overgrowth and neuronal loss. Mature cells (14-17 days in vitro) were used for all experiments.
(§3) Cell treatment: The growth media was replaced with MEM supplemented with 25 mM glucose (MEM-g). For both neurotoxicity studies and aconitase measurement, cells were incubated in the designated treatment for the indicated length of time at 37° C. Unless otherwise specified, antagonists or SOD-mimetics were added 15 min. prior to agonists. For measurement of neurotoxicity, cells were incubated with treatments for 18 hr at 37° C. in MEM-g. To access the ability of antagonists to inhibit acute NMDA toxicity or rescue cells from an ongoing NMDA insult, an alternate paradigm of NMDA treatment was used in addition to the one describe above. In this paradigm, growth media was replaced with HBSS^+ (Ca^++-, Mg^++-free Hank's Balanced Salt Solution supplemented with 2 mM CaCl2, 1 mM NaHCO3, 10 mM HEPES and 5 μM glycine), cells were treated with vehicle or 100 μM NMDA for 15 min. after which HBSS^+ was replaced with MEM-g and cells were returned to the incubator for 18 additional hrs. Antagonsists or SOD-mimetics were added to the cells 15 min. before NMDA exposure or 15, 30 or 60 min. following final media replacement. For determination of Ca^++-dependence, cells were incubated in HBSS^+ with no added Ca^++. When kainate (KA) was used as an agonist, 100 μM D-APV was routinely included to block secondary NMDA receptor activation. Catalase (100 U/ml) was always included when xanthine plus xanthine oxidase (X+XO) was used as a treatment to rule out the contribution of hydrogen peroxide.
Aconitase measurement: For the measurement of aconitase, following treatment with agents, media was removed and cells lysed in ice-cold 50 mM, Tris/HCl, pH 7.4 containing 0.6 mM MnCl2, 1 mM L-cysteine, 1 mM citrate and 0.5% Triton-X 100. The aconitase activity of cell lysates was measured spectrophotometrically by monitoring the formation of cis-aconitate from isocitrate at 240 nm in 50 mM Tris/HCl, pH 7.4, containing 0.6 mM MnCl2 and 20 mM isocitrate at 25° C. (Kreb and Holzach, Biochem. J. 52:527 (1952); Gardner and Fridovich, J. Biol. Chem. 267:8757 (1992)). […] Aconitase activity in cortical cell lysates was inhibited by 0.1 mM potassium ferricyanide or by boiling of sample.

rat cortical cells = assay: Neurotoxicity (LDH release) in cortical cell culture; format: cell-based
Protocol: as §2, §3
Neurotoxicity studies: Neurotoxicity was determined by the measurement of LDH released in the supernatant media as previously described (Patel et al, Toxicol. Appl. Pharmacol. 115:124 (1991) and Neurotoxicology 14:35 (1992)). LDH was measured by the method of Vassault, Lactate dehydrogenase. In: Methods of Enzymatic Analysis, Bergmeyer HU (ed), Verlag Chemie, Weinheim, pp. 118-126 (1983). Additionally, cell death was confirmed with ethidium-1 homodimer (EthD-1). Briefly, the cells were washed with HBSS, loaded with 20 μM EthD-1 for 30 min,. rinsed and viewed through fluorescence optics. The number of dead cells labeled with EthD-1 were counted in 4-6 randomly selected fields, the numbers averaged to give an estimate of cell death and the experiment was repeated 3 times.

[5] = test system: Rat pulmonary epithelial cell cultures (L2); assay: Paraquat-induced injury of L2 cells, LDH release; format: cell-based; details: 100 μM; Paraquat 2.5 mM, 48 hours
[6] = test system: Calf pulmonary endothelial cell (CPA-47) line; assay: Glucose oxidase hydrogen peroxide injury of CPA-47, Cr^51 release; format: cell-based; details: glucose oxidase 100 Mu/ml, 4 hours; 1 hour pretreatment
Protocol: (§4) Calf pulmonary endothelial cell (CPA-47) line was grown to near confluence in 12-well plates with F-12K medium containing 10% fetal calf serum. CPA-47 cells were loaded with Cr^51 as previously described by Simon et al J. Clin. Invest. 78:1375 (1986) in high glucose minimum essential medium (DMEM). Cells were pretreated with MnTBAP (100 μM) for 1 hour and then exposed to various concentrations of hydrogen peroxide generator, glucose oxidase, for 4 hours. Cell injury was then quantitated as the specific Cr^51 release from CPA-47 cells which has been adjusted for spontaneous Cr51 release.
as §4, with “(J.” for “J.”, “(1986))” for “(1986)”, “various concentrations of either: (A) MnTBAP; (B) MnTMPyP; (C) ZnTBAP; or (D) CuZnSOD” for “MnTBAP (100 μM)”, “the” for “various concentrations of”, “oxidase (100 Mu/ml),” for “oxidase,”, “Cr^51” for “Cr51”

Compound: 3,3′3″,3′″-Tetramethoxy-4,4′,4″,4′″-(porphine-5,10,15,20-tetrayl)tetrakis (benzoic acid) [Compound 10305]
SOD [1]: inactive
Catalase [2]: 2.2 min⁻¹

Compound: CNC(=N)NCCC[C@H](N)C(=O)O [L-NMA, N^G-methyl-L-arginine, reference compound]
change of inhibition of nitrite/nitrate accumulation when applied 6 h after LPS (J774 macrophages [3]; LPS-stimulated macrophages): similar
inhibition of the production of NO (J774 macrophages [3]; cells stimulated with LPS or LPS and IFN): near-complete inhibition
immunostimulation-induced suppression of mitochondrial respiration (J774 macrophages [4]): restoration of the respiration to an extent comparable with that of 300 μM MnTBAP
NMDA-induced aconitase inactivation (aconitase): unchanged
NMDA-induced LDH release (rat cortical cells; 1 mM NOS inhibitor): unchanged

Compound: C[n+]1ccc(-c2c3nc(c(-c4cc[n+](C)cc4)c4ccc([n-]4)c(-c4cc[n+](C)cc4)c4nc(c(-c5cc[n+](C)cc5)c5ccc2[n-]5)C=C4)C=C3)cc1.[Mn+3] [MnTMPyP, Mn(III) tetrakis (1-methy-4-pyridyl)porphyrin]
paraquat-induced LDH release [5]: decrease paraquat-induced LDH release
hydrogen peroxide-induced endothelial cell injury [6]: reduction

Catalase [2]: 0.59 min⁻¹
Compound: Tetra (N,N-dimethyl) 4,4′,4″,4′″-(porphine-5,10,15,20-tetrayl)-tetrakis(benzamide) manganese (III) chloride [Compound 10109]
SOD [1]: 470 μg/USOD

Compound: Trimethyl 2,2′,2″, 2′″-tetrahydroxy-4-benzoic acid-4″, 4″, 4′″ (porphine -5,10,15,20-tetrayl)tribenzoate manganese (III) chloride [Compound 10303]
SOD [1]: 78 μg/USOD
Catalase [2]: 1.4 min⁻¹
protection against NMDA-induced excitotoxicity (rat cortical cells; NMDA 50 μM, 25 μM compound): 100%
protection against kainate-induced excitotoxicity (rat cortical cells; kainate 300 μM, 100 μM compound): 100%
